In patent US20170190671A1, “BIS(ARYL)CATECHOL DERIVATIVES AS HERBICIDES” (E I DU PONT DE NEMOURS AND COMPANY, priority 2014, published 2017):

Key:
Format in all cases: in vivo
[1] = test system: Italian ryegrass (Lolium multiflorum); assay: Test C preemergence; details: Lolium multiflorum, pre-emergence, 336 h, scale 0 to 100, read-out: Plant response rating, Ryegrass, Italian
Method in brief: (§1)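 Seeded loam-sand soil (preemergence) or young potted plants of 2-18 cm (postemergence) received test chemical formulated with surfactant in a non-phytotoxic solvent. Pots were kept in the greenhouse for 13-15 days before a visual 0-100 control rating relative to controls.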

[2] = test system: barnyardgrass (Echinochloa crus-galli); assay: Test C preemergence; details: Echinochloa crus-galli, pre-emergence, read-out: Plant response rating, Barnyardgrass
Method in brief: as §1

[3] = test system: blackgrass (Alopecurus myosuroides); assay: Test C preemergence; details: Alopecurus myosuroides, pre-emergence, 336 h, scale 0 to 100, read-out: Plant response rating, Blackgrass
Method in brief: as §1

corn (Zea mays) = assay: Test C preemergence; details: Zea mays, pre-emergence, 336 h, scale 0 to 100
Method in brief: as §1

[4] = test system: giant foxtail (Setaria faberii); assay: Test C preemergence; details: Setaria faberi, pre-emergence, 336 h, scale 0 to 100, read-out: Plant response rating, Foxtail, Giant
Method in brief: as §1

[5] = test system: johnsongrass (Sorghum halepense); assay: Test C preemergence; details: Sorghum halepense, pre-emergence, 336 h, scale 0 to 100, read-out: Plant response rating, Johnsongrass
Method in brief: as §1

[6] = test system: lambsquarters (Chenopodium album); assay: Test C preemergence; details: Chenopodium album, pre-emergence, 336 h, scale 0 to 100, read-out: Plant response rating, Lambsquarters
Method in brief: as §1

[7] = test system: large (Lg) crabgrass (Digitaria sanguinalis); assay: Test C preemergence; details: Digitaria sanguinalis, pre-emergence, 336 h, scale 0 to 100, read-out: Plant response rating, Crabgrass, Large
Method in brief: as §1

[8] = test system: pigweed (Amaranthus retroflexus); assay: Test C preemergence; details: Amaranthus retroflexus, pre-emergence, 336 h, scale 0 to 100, read-out: Plant response rating, Pigweed
Method in brief: as §1

[9] = test system: ragweed (common ragweed, Ambrosia elatior); assay: Test C preemergence; details: Ambrosia artemisiifolia, pre-emergence, 336 h, scale 0 to 100, read-out: Plant response rating, Ragweed
Method in brief: as §1

soybean (Glycine max) = assay: Test C preemergence; details: Glycine max, pre-emergence, scale 0 to 100, read-out: Plant response rating, Soybean
Method in brief: as §1

[10] = test system: velvetleaf (Abutilon theophrasti); assay: Test C preemergence; details: Abutilon theophrasti, pre-emergence, scale 0 to 100, read-out: Plant response rating, Velvetleaf
Method in brief: as §1

[11] = test system: winter wheat (Triticum aestivum); assay: Test C preemergence; details: Triticum aestivum, pre-emergence, 336 h, scale 0 to 100, read-out: Plant response rating, Wheat
Method in brief: as §1

[12] = test system: yellow nutsedge (Cyperus esculentus); assay: Test C preemergence; details: Cyperus, pre-emergence, 336 h, scale 0 to 100, read-out: Plant response rating, Nutsedge, Yellow
Method in brief: as §1

[13] = test system: large (Lg) crabgrass (Digitaria sanguinalis); assay: Test E preemergence; details: scale 0 to 100
Method in brief: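 Test chemicals, formulated in a non-phytotoxic solvent with surfactant, are applied to silt loam soil after sowing or sprayed over young plants (1–4 leaves) in potting medium. Plants are then kept in a greenhouse for 14 to 21 days and scored 0–100 for control.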

## Fc1cccc(Oc2ncc(C(F)(F)F)cn2)c1Oc1ncc(Cl)cn1 [Compound 42, 5-chloro-2-[2-fluoro-6-[[5-(trifluoromethyl)-2-pyrimidinyl]oxy]phenoxy]pyrimidine]
[1]; 31 g ai/ha, preemergence
  pest or weed control at 31 g/ha: 70%
[1]; 62 g ai/ha, preemergence
  pest or weed control at 62 g/ha: 80%
[1]; 125 g ai/ha, preemergence
  pest or weed control at 125 g/ha: 95%
[1]; Preemergence, 16 g ai/ha
  pest or weed control at 16 g/ha: 5%
[2]; 31 g ai/ha, preemergence, scale 0 to 100
  pest or weed control at 31 g/ha: 90%
[2]; 62 g ai/ha, preemergence, scale 0 to 100
  pest or weed control at 62 g/ha: 100%
[2]; 125 g ai/ha, preemergence, scale 0 to 100
  pest or weed control at 125 g/ha: 100%
[2]; Preemergence, 16 g ai/ha, scale 0 to 100 (0 no effect, 100 complete control)
  pest or weed control at 16 g/ha: 50%
[3]; 31 g ai/ha, preemergence
  pest or weed control at 31 g/ha: 65%
[3]; 62 g ai/ha, preemergence
  pest or weed control at 62 g/ha: 90%
[3]; 125 g ai/ha, preemergence
  pest or weed control at 125 g/ha: 90%
[3]; Preemergence, 16 g ai/ha
  pest or weed control at 16 g/ha: 35%
Corn (Zea mays); 31 g ai/ha, preemergence
  Corn plant response rating (crop injury, 0 = no effect, 100 = complete kill) at 31 g/ha: 5%
Corn (Zea mays); 62 g ai/ha, preemergence
  Corn plant response rating (crop injury, 0 = no effect, 100 = complete kill) at 62 g/ha: 80%
Corn (Zea mays); 125 g ai/ha, preemergence
  Corn plant response rating (crop injury, 0 = no effect, 100 = complete kill) at 125 g/ha: 85%
Corn (Zea mays); Preemergence, 16 g ai/ha
  Corn plant response rating (crop injury, 0 = no effect, 100 = complete kill) at 16 g/ha: 0%
[4]; 31 g ai/ha, preemergence
  pest or weed control at 31 g/ha: 100%
[4]; 62 g ai/ha, preemergence
  pest or weed control at 62 g/ha: 100%
[4]; 125 g ai/ha, preemergence
  pest or weed control at 125 g/ha: 100%
[4]; Preemergence, 16 g ai/ha
  pest or weed control at 16 g/ha: 85%
[5]; 31 g ai/ha, preemergence
  pest or weed control at 31 g/ha: 70%
[5]; 62 g ai/ha, preemergence
  pest or weed control at 62 g/ha: 100%
[5]; 125 g ai/ha, preemergence
  pest or weed control at 125 g/ha: 100%
[5]; Preemergence, 16 g ai/ha
  pest or weed control at 16 g/ha: 30%
[6]; 31 g ai/ha, preemergence
  pest or weed control at 31 g/ha: 100%
[6]; 62 g ai/ha, preemergence
  pest or weed control at 62 g/ha: 100%
[6]; 125 g ai/ha, preemergence
  pest or weed control at 125 g/ha: 100%
[6]; Preemergence, 16 g ai/ha
  pest or weed control at 16 g/ha: 100%
[7]; 31 g ai/ha, preemergence
  pest or weed control at 31 g/ha: 100%
[7]; 62 g ai/ha, preemergence
  pest or weed control at 62 g/ha: 100%
[7]; 125 g ai/ha, preemergence
  pest or weed control at 125 g/ha: 100%
[7]; Preemergence, 16 g ai/ha
  pest or weed control at 16 g/ha: 100%
[8]; 31 g ai/ha, preemergence
  pest or weed control at 31 g/ha: 100%
[8]; 62 g ai/ha, preemergence
  pest or weed control at 62 g/ha: 100%
[8]; 125 g ai/ha, preemergence
  pest or weed control at 125 g/ha: 100%
[8]; Preemergence, 16 g ai/ha
  pest or weed control at 16 g/ha: 100%
[9]; 31 g ai/ha, preemergence
  pest or weed control at 31 g/ha: 55%
[9]; 62 g ai/ha, preemergence
  pest or weed control at 62 g/ha: 98%
[9]; 125 g ai/ha, preemergence
  pest or weed control at 125 g/ha: 90%
[9]; Preemergence, 16 g ai/ha
  pest or weed control at 16 g/ha: 30%
Soybean (Glycine max); 31 g ai/ha, preemergence
  plant injury at 31 g/ha: 50%
Soybean (Glycine max); 62 g ai/ha, preemergence
  plant injury at 62 g/ha: 80%
Soybean (Glycine max); 125 g ai/ha, preemergence
  plant injury at 125 g/ha: 95%
Soybean (Glycine max); Preemergence, 16 g ai/ha
  plant injury at 16 g/ha: 25%
[10]; 31 g ai/ha, preemergence
  pest or weed control at 31 g/ha: 100%
[10]; 62 g ai/ha, preemergence
  pest or weed control at 62 g/ha: 100%
[10]; 125 g ai/ha, preemergence
  pest or weed control at 125 g/ha: 100%
[10]; Preemergence, 16 g ai/ha
  pest or weed control at 16 g/ha: 100%
[11]; 31 g ai/ha, preemergence
  plant injury at 31 g/ha: 30%
[11]; 62 g ai/ha, preemergence
  plant injury at 62 g/ha: 45%
[11]; 125 g ai/ha, preemergence
  plant injury at 125 g/ha: 90%
[11]; Preemergence, 16 g ai/ha
  plant injury at 16 g/ha: 0%
[12]; 31 g ai/ha, preemergence
  pest or weed control at 31 g/ha: 10%
[12]; 62 g ai/ha, preemergence
  pest or weed control at 62 g/ha: 50%
[12]; 125 g ai/ha, preemergence
  pest or weed control at 125 g/ha: 75%
[12]; Preemergence, 16 g ai/ha
  pest or weed control at 16 g/ha: 0%
[13]; 16 g ai/ha
  Plant response rating, Crabgrass, Large: 80
[13]; 31 g ai/ha
  Plant response rating, Crabgrass, Large: 98
[13]; 62 g ai/ha
  Plant response rating, Crabgrass, Large: 100
[13]; 125 g ai/ha
  Plant response rating, Crabgrass, Large: 100
